Test systems include BT-549 breast; EKVX NSCLC; HT29 colon; MALME-3M melanoma; MDA-MB-435; NCI/ADR-RES ovarian; OVCAR-3 ovarian; OVCAR-4 ovarian; OVCAR-5 ovarian; PC-3 prostate; RXF 393 renal; SF-295 CNS; SK-MEL-28 melanoma; SN12C renal; SNB-19 CNS; T-47D breast; TK-10 renal; HCC-2998 colon; NCI-H23 lung.
Holding throughout (assay): growth of human tumour cells (NCI), 48 h

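These data come from cells grown in 96-well plates and exposed to compound for 48 hours at five concentrations. TGI marks complete inhibition of growth.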 Bounds are passed on as bounds.

On to `N#CCCN(CCC#N)c1ccc(/C=C2\N=C(c3ccccc3)N(c3ccccc3)C2=O)cc1`, for which the TGI with BT-549 breast, with EKVX NSCLC, in the assay with HT29 colon, with MALME-3M melanoma, in the assay on MDA-MB-435 and in the assay with NCI/ADR-RES ovarian was greater than 100 µM throughout. In addition, the TGI in the assay with OVCAR-3 ovarian, with OVCAR-4 ovarian, in the assay with OVCAR-5 ovarian, with PC-3 prostate, in the assay with RXF 393 renal and in the assay on SF-295 CNS was greater than 100 µM throughout. The TGI with SK-MEL-28 melanoma, with SN12C renal, with SNB-19 CNS, with T-47D breast and in the assay with TK-10 renal was greater than 100 µM throughout.
As to `N=c1oc2ccc(Cl)cc2cc1C(=O)NC1CCCCC1`, the TGI in the assay on BT-549 breast is greater than 100 µM; with HCC-2998 colon, 89.1 µM; with HT29 colon, greater than 100 µM; with MDA-MB-435 it was greater than 100 µM; in the assay on NCI-H23 lung it was greater than 100 µM; in the assay on NCI/ADR-RES ovarian, greater than 100 µM. Also, the TGI with OVCAR-3 ovarian, with OVCAR-4 ovarian, with OVCAR-5 ovarian, in the assay with PC-3 prostate, in the assay on RXF 393 renal and in the assay on SK-MEL-28 melanoma was greater than 100 µM each time. Further, the TGI in the assay with SN12C renal, in the assay on SNB-19 CNS and in the assay on T-47D breast was greater than 100 µM in each case.
Consider `O=C(NC(Cc1ccccc1)P(=O)(O)c1ccccc1)OCc1ccccc1` (configuration not stated), for which the TGI with BT-549 breast, in the assay on EKVX NSCLC, in the assay on HT29 colon, in the assay with MALME-3M melanoma, in the assay with MDA-MB-435 and in the assay with NCI-H23 lung was greater than 100 µM in each case. The TGI in the assay with NCI/ADR-RES ovarian, in the assay on OVCAR-3 ovarian, in the assay with OVCAR-4 ovarian, with OVCAR-5 ovarian, in the assay with PC-3 prostate and with SF-295 CNS was greater than 100 µM each time. For the same molecule, the TGI in the assay with SK-MEL-28 melanoma, with SN12C renal, with SNB-19 CNS, in the assay with T-47D breast and with TK-10 renal was greater than 100 µM in each case.
Regarding `COC(=O)c1ccccc1Nc1ccccc1C(=O)OC`, the TGI is greater than 100 µM in the assay on BT-549 breast; greater than 100 µM in the assay on EKVX NSCLC; greater than 100 µM with HT29 colon; 96.8 µM with MALME-3M melanoma; greater than 100 µM with MDA-MB-435; greater than 100 µM with NCI-H23 lung. The TGI in the assay on NCI/ADR-RES ovarian, in the assay with OVCAR-3 ovarian, in the assay with OVCAR-4 ovarian, in the assay on OVCAR-5 ovarian, in the assay on PC-3 prostate and in the assay on RXF 393 renal was greater than 100 µM in each case. Also, the TGI in the assay with SF-295 CNS, with SK-MEL-28 melanoma, with SN12C renal, in the assay with SNB-19 CNS, with T-47D breast and in the assay with TK-10 renal was greater than 100 µM in each case.
Consider `CC(C)C(=O)CP(=O)(O)O`, for which the TGI in the assay on BT-549 breast is greater than 100 µM; in the assay on EKVX NSCLC, 46.1 µM; in the assay on HT29 colon, greater than 100 µM; in the assay on MALME-3M melanoma it was greater than 100 µM; in the assay on MDA-MB-435, greater than 100 µM; in the assay with NCI-H23 lung, greater than 100 µM. For the same molecule, the TGI with NCI/ADR-RES ovarian, in the assay with OVCAR-3 ovarian, in the assay with OVCAR-4 ovarian, in the assay with OVCAR-5 ovarian, with PC-3 prostate and with RXF 393 renal was greater than 100 µM each time. Also, the TGI in the assay with SF-295 CNS, in the assay on SK-MEL-28 melanoma, with SN12C renal, in the assay on SNB-19 CNS, in the assay with T-47D breast and in the assay on TK-10 renal was greater than 100 µM in each case.
Take `CC(C)[Si](OC1=CCC[C@H]2NC(=O)[C@@H](Cc3ccc([N+](=O)[O-])cc3)[C@@]12C)(C(C)C)C(C)C`: the TGI was found to be 13.2 µM in the assay on BT-549 breast; 18.7 µM with EKVX NSCLC; 4.22 µM in the assay with HCC-2998 colon; 5.13 µM in the assay with HT29 colon; 43.4 µM in the assay on MALME-3M melanoma; 18.6 µM with NCI-H23 lung. Moreover, the TGI is 28 µM with NCI/ADR-RES ovarian; 11.7 µM in the assay on OVCAR-3 ovarian; 17.1 µM in the assay on OVCAR-4 ovarian; 21.2 µM in the assay on OVCAR-5 ovarian; 12 µM in the assay with PC-3 prostate; 4.72 µM in the assay on RXF 393 renal. Moreover, the TGI with SF-295 CNS came to 16.9 µM; in the assay on SN12C renal, 3.8 µM; in the assay on SNB-19 CNS, 25.9 µM; in the assay on T-47D breast it was 18.4 µM; with TK-10 renal it was 23.9 µM.
Take `CC1OC(n2cnc3c(N)nc(Cl)nc32)C(C)(O)C1O` (configuration not stated): the TGI with BT-549 breast, in the assay on EKVX NSCLC, in the assay with HCC-2998 colon, in the assay with HT29 colon, with MALME-3M melanoma and in the assay with MDA-MB-435 was greater than 25 µM throughout. In addition, the TGI in the assay on NCI-H23 lung, in the assay with NCI/ADR-RES ovarian, in the assay with OVCAR-3 ovarian, with OVCAR-4 ovarian, in the assay with OVCAR-5 ovarian and in the assay with RXF 393 renal was greater than 25 µM in each case. The TGI in the assay with SF-295 CNS, in the assay with SN12C renal, in the assay on SNB-19 CNS, with T-47D breast and in the assay on TK-10 renal was greater than 25 µM each time.
For the molecule `Cc1ccc(S(=O)(=O)NC(=O)NCC(=O)O)cc1`, the TGI in the assay with BT-549 breast, in the assay with HT29 colon, in the assay on MALME-3M melanoma, in the assay with NCI-H23 lung, with NCI/ADR-RES ovarian and in the assay on OVCAR-4 ovarian was greater than 100 µM in each case. The TGI in the assay with OVCAR-5 ovarian, in the assay on PC-3 prostate, in the assay on RXF 393 renal, with SF-295 CNS, in the assay on SK-MEL-28 melanoma and in the assay with SN12C renal was greater than 100 µM each time. Besides, the TGI with SNB-19 CNS, with T-47D breast and in the assay on TK-10 renal was greater than 100 µM throughout.
Consider `COc1cc(OC)cc(Oc2nc3c(N)cc(C(F)(F)F)cc3nc2-c2ccccc2)c1`, for which the TGI was greater than 100 µM with BT-549 breast; greater than 100 µM in the assay on EKVX NSCLC; greater than 100 µM with HCC-2998 colon; greater than 100 µM with HT29 colon; 66.5 µM in the assay on MDA-MB-435; greater than 100 µM in the assay on NCI-H23 lung. The TGI in the assay on NCI/ADR-RES ovarian, in the assay with OVCAR-4 ovarian, in the assay with PC-3 prostate, in the assay with RXF 393 renal, with SF-295 CNS and with SK-MEL-28 melanoma was greater than 100 µM throughout. In addition, the TGI in the assay on SNB-19 CNS is greater than 100 µM; in the assay with T-47D breast, 8.91 µM; in the assay on TK-10 renal it was greater than 100 µM.
With `NC(=O)N/N=C/c1ccccc1O`, the TGI in the assay with BT-549 breast, in the assay with EKVX NSCLC, in the assay with HCC-2998 colon, with HT29 colon, in the assay on MDA-MB-435 and with NCI-H23 lung was greater than 100 µM each time. Moreover, the TGI with NCI/ADR-RES ovarian, with OVCAR-4 ovarian, in the assay on PC-3 prostate, in the assay with RXF 393 renal, in the assay on SF-295 CNS and with SK-MEL-28 melanoma was greater than 100 µM each time. In addition, the TGI in the assay with SNB-19 CNS, in the assay on T-47D breast and in the assay with TK-10 renal was greater than 100 µM in each case.
For `CC(C)(C)OC(=O)CC(NC(=O)OC(C)(C)C)C(=O)Oc1ccc([N+](=O)[O-])cc1` (configuration not stated), the TGI with BT-549 breast, in the assay on EKVX NSCLC, in the assay on HT29 colon, with MALME-3M melanoma, in the assay on MDA-MB-435 and in the assay with NCI-H23 lung was greater than 100 µM each time. Moreover, the TGI in the assay on NCI/ADR-RES ovarian, with OVCAR-3 ovarian, in the assay with OVCAR-4 ovarian, in the assay with OVCAR-5 ovarian, with PC-3 prostate and with RXF 393 renal was greater than 100 µM throughout. The TGI in the assay on SF-295 CNS, with SK-MEL-28 melanoma, in the assay with SN12C renal, in the assay with SNB-19 CNS, with T-47D breast and in the assay on TK-10 renal was greater than 100 µM throughout.
With `Cc1c(C=C(C#N)C#N)c(=O)n(C)c(=O)n1C`, the TGI in the assay on BT-549 breast, in the assay on EKVX NSCLC, in the assay on HT29 colon, in the assay with MALME-3M melanoma, with MDA-MB-435 and in the assay on NCI-H23 lung was greater than 100 µM in each case. For the same molecule, the TGI in the assay on NCI/ADR-RES ovarian, with OVCAR-3 ovarian, with OVCAR-4 ovarian, in the assay on OVCAR-5 ovarian, in the assay with PC-3 prostate and in the assay with RXF 393 renal was greater than 100 µM throughout. Moreover, the TGI in the assay on SF-295 CNS, in the assay with SK-MEL-28 melanoma, with SN12C renal, with SNB-19 CNS, with T-47D breast and with TK-10 renal was greater than 100 µM each time.
For the molecule `O=C(CC(C(=O)c1cccs1)c1ccccc1)c1ccccc1O` (configuration not stated), the TGI was greater than 100 µM with BT-549 breast; greater than 100 µM in the assay with EKVX NSCLC; greater than 100 µM in the assay on HCC-2998 colon; greater than 100 µM with HT29 colon; greater than 100 µM in the assay on NCI-H23 lung; greater than 25.3 µM in the assay on NCI/ADR-RES ovarian. The TGI was greater than 100 µM in the assay with OVCAR-3 ovarian; greater than 64.2 µM with OVCAR-4 ovarian; greater than 100 µM with OVCAR-5 ovarian; greater than 100 µM in the assay with PC-3 prostate; 27.9 µM in the assay on RXF 393 renal; greater than 27.9 µM in the assay on SF-295 CNS. Further, the TGI in the assay on SK-MEL-28 melanoma is greater than 100 µM; with SN12C renal it was greater than 100 µM; in the assay with SNB-19 CNS, greater than 100 µM; in the assay on T-47D breast, greater than 40 µM; with TK-10 renal, greater than 74.5 µM.

The values are drawn from PubChem BioAssay (NCI).
